Reference: patent publication US12421232B2, “Kinase inhibitor compounds and compositions and methods of use” (ICAHN SCHOOL OF MEDICINE AT MOUNT SINAI, priority 2018, dated 2025)
Read-outs that look alike come from different tables or passages of the source.

Columns and labels:
Assay in all cases: KINOMEscan Assay (DiscoverX)
Format in all cases: binding
Conditions in all cases: read-out: % DMSO Ctrl
FLT3(D835V) = target: T1, FLT3(D835V) (Homo sapiens, UniProt P36888, D835V)
T1 construct: purchased DiscoverX
T1 sequence (P36888 27-993 D835V): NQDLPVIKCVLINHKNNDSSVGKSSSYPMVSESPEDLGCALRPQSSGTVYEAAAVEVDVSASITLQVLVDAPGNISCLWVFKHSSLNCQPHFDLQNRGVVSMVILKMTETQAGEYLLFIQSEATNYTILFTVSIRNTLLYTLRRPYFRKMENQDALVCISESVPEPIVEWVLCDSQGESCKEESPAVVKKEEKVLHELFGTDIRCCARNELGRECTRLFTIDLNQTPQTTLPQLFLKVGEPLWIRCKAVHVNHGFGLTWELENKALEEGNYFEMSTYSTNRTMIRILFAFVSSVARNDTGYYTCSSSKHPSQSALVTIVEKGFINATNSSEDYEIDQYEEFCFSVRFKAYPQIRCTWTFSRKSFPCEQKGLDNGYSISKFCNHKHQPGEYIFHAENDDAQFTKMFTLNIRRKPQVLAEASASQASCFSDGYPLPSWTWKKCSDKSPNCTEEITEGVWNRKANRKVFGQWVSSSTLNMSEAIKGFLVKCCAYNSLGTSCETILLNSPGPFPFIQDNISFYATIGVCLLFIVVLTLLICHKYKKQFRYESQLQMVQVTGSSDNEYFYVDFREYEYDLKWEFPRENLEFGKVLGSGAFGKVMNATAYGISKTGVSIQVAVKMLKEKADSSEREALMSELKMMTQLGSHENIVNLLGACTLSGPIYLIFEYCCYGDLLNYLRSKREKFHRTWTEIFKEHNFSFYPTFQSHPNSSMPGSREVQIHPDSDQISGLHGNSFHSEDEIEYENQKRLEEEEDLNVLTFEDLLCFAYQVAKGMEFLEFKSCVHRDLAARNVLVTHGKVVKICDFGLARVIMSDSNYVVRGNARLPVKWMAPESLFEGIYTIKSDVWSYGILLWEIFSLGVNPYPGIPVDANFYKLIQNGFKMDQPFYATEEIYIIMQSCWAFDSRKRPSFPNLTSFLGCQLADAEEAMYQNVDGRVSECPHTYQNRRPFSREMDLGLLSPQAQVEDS

[1] = target: T2, JAK3(JH1DOMAIN-CATALYTIC) (Homo sapiens, UniProt P52333)
T2 construct: JH1DOMAIN; purchased DiscoverX

CLK3 = target: T3, CLK3 (Homo sapiens, UniProt P49761)
T3 construct: purchased DiscoverX
T3 sequence (P49761 whole entry): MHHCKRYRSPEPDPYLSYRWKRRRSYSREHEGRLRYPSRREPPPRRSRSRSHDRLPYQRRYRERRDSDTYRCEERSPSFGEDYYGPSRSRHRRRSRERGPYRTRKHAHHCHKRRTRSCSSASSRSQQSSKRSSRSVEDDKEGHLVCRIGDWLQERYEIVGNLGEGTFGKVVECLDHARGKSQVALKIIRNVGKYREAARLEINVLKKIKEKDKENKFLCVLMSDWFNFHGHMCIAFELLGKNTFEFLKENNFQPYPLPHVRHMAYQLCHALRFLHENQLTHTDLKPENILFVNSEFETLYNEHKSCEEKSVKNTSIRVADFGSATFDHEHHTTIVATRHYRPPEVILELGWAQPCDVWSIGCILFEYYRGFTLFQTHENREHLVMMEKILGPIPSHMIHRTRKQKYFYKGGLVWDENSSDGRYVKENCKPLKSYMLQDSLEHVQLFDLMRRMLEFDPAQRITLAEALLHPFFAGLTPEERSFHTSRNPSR

[2] = target: T4, TYK2(JH1domain-catalytic) (Homo sapiens, UniProt P29597)
T4 construct: JH1domain; purchased DiscoverX
T4 sequence (P29597 897-1176 limits assumed): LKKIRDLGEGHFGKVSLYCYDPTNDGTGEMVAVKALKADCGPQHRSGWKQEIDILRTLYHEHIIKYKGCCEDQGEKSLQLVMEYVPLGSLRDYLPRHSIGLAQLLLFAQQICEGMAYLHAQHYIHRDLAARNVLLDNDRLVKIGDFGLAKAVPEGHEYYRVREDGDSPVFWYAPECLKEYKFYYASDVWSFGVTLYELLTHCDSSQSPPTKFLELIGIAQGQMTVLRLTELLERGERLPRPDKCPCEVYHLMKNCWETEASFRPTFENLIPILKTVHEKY

EGFR(G719C) = target: T5, EGFR(G719C) (Homo sapiens, UniProt P00533, G719C)
T5 construct: purchased DiscoverX

CAMK2B = target: T6, CAMK2B (Homo sapiens, UniProt Q13554)
T6 construct: purchased DiscoverX
T6 sequence (Q13554 whole entry): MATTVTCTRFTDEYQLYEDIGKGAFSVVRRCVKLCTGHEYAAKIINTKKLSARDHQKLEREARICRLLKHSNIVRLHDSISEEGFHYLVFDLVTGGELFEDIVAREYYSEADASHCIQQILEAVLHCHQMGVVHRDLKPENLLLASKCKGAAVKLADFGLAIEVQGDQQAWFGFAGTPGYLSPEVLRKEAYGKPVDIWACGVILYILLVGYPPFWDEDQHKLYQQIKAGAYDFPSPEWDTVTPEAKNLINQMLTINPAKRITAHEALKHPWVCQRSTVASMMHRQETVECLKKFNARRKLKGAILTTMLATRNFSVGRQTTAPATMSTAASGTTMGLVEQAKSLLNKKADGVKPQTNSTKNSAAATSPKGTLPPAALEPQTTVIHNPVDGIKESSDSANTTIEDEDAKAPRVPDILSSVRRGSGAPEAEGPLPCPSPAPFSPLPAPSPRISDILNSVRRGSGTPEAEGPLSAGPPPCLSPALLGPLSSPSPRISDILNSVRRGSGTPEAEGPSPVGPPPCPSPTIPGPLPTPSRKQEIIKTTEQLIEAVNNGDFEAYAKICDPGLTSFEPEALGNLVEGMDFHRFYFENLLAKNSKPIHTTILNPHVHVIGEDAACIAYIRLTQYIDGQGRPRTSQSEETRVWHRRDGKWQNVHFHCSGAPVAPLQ

ADCK4 = target: T7, ADCK4 (Homo sapiens, UniProt Q96D53)
T7 construct: purchased DiscoverX
T7 sequence (Q96D53 1-544): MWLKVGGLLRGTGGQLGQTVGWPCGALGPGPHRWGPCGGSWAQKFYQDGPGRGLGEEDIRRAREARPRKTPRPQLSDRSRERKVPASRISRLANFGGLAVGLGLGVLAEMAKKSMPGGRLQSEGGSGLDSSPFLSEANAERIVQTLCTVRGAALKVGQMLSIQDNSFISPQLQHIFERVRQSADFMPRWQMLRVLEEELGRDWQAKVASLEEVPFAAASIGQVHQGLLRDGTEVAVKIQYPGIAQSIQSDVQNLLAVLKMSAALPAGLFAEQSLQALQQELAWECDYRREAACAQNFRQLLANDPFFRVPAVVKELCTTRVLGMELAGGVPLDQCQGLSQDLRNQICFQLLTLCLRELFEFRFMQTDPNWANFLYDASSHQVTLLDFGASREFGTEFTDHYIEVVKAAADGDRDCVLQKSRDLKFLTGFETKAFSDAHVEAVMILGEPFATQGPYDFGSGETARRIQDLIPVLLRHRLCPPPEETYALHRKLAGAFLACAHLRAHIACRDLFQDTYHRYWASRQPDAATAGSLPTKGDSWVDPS

[3] = target: T8, RPS6KA4(Kin.Dom.2-C-terminal) (Homo sapiens, UniProt O75676)
T8 construct: Kin.Dom.2; purchased DiscoverX

EGFR(L858R,T790M) = target: T9, EGFR(L858R,T790M) (Homo sapiens, UniProt P00533, L858R/T790M)
T9 construct: purchased DiscoverX
T9 sequence (P00533 25-1210 T790M/L858R): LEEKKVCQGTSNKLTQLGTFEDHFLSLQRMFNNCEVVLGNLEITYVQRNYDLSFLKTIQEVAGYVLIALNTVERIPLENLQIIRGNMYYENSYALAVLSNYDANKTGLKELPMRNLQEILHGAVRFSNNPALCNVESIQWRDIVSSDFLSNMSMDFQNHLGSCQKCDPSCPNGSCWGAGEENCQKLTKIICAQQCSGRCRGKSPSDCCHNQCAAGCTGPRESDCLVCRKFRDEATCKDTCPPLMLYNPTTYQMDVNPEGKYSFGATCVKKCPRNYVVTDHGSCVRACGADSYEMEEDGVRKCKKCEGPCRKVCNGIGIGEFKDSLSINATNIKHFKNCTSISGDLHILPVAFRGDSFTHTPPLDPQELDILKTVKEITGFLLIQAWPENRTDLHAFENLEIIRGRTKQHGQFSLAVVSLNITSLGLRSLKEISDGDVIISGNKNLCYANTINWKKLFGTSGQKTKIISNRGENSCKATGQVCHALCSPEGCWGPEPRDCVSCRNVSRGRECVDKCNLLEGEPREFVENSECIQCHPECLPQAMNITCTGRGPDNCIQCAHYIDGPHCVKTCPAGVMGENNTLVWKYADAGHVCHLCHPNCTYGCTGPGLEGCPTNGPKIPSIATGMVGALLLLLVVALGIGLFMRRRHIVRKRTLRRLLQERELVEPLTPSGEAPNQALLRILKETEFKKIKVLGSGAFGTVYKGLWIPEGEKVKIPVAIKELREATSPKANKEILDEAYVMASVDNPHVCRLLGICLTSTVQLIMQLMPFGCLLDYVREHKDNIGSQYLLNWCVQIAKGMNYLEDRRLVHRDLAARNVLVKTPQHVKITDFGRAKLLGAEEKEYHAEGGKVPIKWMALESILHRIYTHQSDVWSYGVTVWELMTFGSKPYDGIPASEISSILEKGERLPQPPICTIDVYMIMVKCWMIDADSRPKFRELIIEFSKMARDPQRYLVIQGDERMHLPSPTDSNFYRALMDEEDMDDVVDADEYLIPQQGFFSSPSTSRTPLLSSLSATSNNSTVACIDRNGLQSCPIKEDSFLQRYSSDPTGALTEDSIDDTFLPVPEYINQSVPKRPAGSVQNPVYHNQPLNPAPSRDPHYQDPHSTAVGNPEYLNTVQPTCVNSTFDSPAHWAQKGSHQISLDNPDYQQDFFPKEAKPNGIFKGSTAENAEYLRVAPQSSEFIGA

LRRK2(G2019S) = target: T10, LRRK2(G2019S) (Homo sapiens, UniProt Q5S007, G2019S)
T10 construct: purchased DiscoverX
T10 sequence (Q5S007 whole entry G2019S): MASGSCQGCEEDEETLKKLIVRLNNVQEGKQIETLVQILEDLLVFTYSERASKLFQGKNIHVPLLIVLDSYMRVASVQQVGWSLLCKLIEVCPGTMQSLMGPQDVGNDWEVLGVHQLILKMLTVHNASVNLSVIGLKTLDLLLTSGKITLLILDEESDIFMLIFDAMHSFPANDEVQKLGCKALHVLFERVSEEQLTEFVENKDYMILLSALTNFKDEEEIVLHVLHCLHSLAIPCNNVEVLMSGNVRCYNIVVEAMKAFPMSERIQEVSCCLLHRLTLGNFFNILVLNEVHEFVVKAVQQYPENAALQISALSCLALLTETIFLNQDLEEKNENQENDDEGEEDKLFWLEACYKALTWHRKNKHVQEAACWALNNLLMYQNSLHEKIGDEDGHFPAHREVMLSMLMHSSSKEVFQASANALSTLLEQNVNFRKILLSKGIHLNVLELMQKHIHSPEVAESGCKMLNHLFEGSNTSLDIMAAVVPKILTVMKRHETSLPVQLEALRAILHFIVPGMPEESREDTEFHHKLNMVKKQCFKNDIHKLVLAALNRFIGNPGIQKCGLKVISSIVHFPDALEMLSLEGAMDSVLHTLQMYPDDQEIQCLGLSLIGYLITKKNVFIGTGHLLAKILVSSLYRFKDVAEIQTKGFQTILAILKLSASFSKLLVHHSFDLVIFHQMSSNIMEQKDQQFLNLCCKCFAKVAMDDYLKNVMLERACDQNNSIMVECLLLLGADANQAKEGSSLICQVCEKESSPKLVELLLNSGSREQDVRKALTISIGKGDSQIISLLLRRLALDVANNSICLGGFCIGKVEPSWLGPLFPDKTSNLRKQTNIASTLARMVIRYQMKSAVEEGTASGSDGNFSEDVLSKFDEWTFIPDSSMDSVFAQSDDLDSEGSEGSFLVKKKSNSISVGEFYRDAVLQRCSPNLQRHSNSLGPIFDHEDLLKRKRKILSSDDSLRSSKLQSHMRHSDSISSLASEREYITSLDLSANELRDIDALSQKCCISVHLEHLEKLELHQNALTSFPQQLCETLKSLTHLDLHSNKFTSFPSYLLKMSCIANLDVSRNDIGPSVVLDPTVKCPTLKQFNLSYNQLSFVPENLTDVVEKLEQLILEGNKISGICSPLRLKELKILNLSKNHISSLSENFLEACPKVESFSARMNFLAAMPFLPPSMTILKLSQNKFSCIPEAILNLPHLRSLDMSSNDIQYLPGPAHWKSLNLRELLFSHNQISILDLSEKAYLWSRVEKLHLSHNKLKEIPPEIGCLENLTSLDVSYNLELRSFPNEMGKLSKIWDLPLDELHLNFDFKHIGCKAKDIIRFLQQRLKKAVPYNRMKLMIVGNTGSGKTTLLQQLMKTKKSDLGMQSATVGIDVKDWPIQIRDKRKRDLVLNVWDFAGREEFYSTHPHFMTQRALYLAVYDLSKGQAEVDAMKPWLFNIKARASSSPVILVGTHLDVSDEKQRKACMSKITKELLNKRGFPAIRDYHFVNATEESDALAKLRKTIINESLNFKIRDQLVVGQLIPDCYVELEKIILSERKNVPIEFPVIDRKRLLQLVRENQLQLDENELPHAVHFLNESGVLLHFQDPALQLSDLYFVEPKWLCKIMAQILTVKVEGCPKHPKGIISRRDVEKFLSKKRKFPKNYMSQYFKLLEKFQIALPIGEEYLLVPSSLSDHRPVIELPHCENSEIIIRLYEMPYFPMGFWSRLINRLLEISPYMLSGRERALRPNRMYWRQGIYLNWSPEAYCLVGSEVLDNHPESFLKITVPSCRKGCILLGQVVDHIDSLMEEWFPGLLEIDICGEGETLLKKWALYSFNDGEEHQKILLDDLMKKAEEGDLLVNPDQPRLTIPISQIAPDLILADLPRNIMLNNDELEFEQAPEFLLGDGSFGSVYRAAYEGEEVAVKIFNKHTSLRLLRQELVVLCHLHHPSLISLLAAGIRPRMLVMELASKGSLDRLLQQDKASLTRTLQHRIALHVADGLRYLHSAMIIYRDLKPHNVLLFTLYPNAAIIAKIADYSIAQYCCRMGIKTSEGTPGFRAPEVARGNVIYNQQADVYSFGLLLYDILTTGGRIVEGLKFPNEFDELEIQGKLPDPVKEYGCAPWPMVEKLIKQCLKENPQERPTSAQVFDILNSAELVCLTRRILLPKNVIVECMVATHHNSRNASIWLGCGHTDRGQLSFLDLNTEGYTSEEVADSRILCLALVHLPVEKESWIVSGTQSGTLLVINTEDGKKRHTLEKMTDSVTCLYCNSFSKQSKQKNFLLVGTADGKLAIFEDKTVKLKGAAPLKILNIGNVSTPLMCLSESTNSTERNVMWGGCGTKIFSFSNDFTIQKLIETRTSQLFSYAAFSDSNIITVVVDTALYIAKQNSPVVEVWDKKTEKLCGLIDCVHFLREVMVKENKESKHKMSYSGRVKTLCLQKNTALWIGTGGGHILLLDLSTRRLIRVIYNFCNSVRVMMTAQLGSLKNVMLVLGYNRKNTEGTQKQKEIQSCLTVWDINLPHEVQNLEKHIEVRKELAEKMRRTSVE

Row | Compound | remaining binding at 10 µM (FLT3(D835V)) [%] | remaining binding at 10 µM [1] [%] | remaining binding at 10 µM (CLK3) [%] | remaining binding at 10 µM [2] [%] | remaining binding at 10 µM (FLT3(D835V); FLT3(D835V) mutant, 10 μM) [%] | remaining binding at 10 µM (EGFR(G719C)) [%] | remaining binding at 10 µM (CAMK2B) [%] | remaining binding at 10 µM (ADCK4) [%] | remaining binding at 10 µM ([1]; JAK3(JH1DOMAIN-[…]), 10 μM) [%] | remaining binding at 10 µM [3] [%] | remaining binding at 10 µM (EGFR(L858R,T790M)) [%] | remaining binding at 10 µM (LRRK2(G2019S)) [%] | remaining binding at 10 µM (CLK3; CLK3, 10 μM) [%] | remaining binding at 10 µM ([2]; TYK2(JH1domain-catalytic), 10 μM) [%] | remaining binding at 10 µM (EGFR(G719C); EGFR(G719C) mutant, 10 μM) [%] | remaining binding at 10 µM (CAMK2B; CAMK2B, 10 μM) [%] | remaining binding at 10 µM (ADCK4; ADCK4, 10 μM) [%] | remaining binding at 10 µM ([3]; RPS6KA4(Kin.Dom.2-C-terminal), 10 μM) [%] | remaining binding at 10 µM (EGFR(L858R,T790M); EGFR(L858R,T790M) mutant, 10 μM) [%] | remaining binding at 10 µM (LRRK2(G2019S); LRRK2(G2019S) mutant, 10 μM) [%]
1 | COc1ccc2c(c1)[nH]c1c(C)nccc12 [Harmine, reference compound] | 25 | 61 |  |  |  |  |  |  |  |  |  |  |  |  |  |  |  |  |  | 
2 | C#CCn1c2cc(OC)ccc2c2ccnc(C)c21 [Compound 20-23a, 3-(7-Methoxy-1-methyl-β-carbolin-9-yl)-propan-1-yne] |  |  | 19 | 91 | 2.5 | 92 | 3 | 9.3 | 100 | 55 | 100 | 100 |  |  |  |  |  |  |  | 
3 | COc1ccc2c3ccnc(C)c3n(CCCc3noc(N)n3)c2c1 [Compound 20-13, 3-(3-(7-Methoxy-1-methyl-β-carbolin-9-yl)propyl)-5-amino-1,2,4-oxadiazole] | 2.6 | 87 | 54 | 17 |  | 93 | 69 | 100 |  | 85 | 9.2 | 5.1 |  |  |  |  |  |  |  | 
4 | COc1ccc2c(c1)[nH]c1c(C)nc(CO)cc12 [Compound 2-8, (1-Methyl-7-methoxy-9H-pyrido[3,4-b]indol-3-yl)methanol] |  |  |  |  | 42 |  |  |  | 96 |  |  |  | 36 | 64 | 98 | 42 | 84 | 1 | 79 | 98
